Structures are written as SMILES.

79 compounds from the supplement of paper PMC8372320 can be followed below.
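Note: aromatic molecules in triethylamine/methanol/water with Pt photoreduced in situ, irradiated 3 h under a 1 sun AM 1.5G solar simulator (350–1000 nm), H2 quantified by headspace gas chromatography; listed molecule itself used as the photocatalyst at 5 mg per vial.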

The series in a line: photocatalytic hydrogen evolution rate (per 5 mg catalyst); higher = more photocatalytic H2 evolution; extreme values may be limits of the assay. The note with it: catalyst mass (mg): 5; Pt cocatalyst (wt%): 3; sacrificial medium: triethylamine/methanol/water 1:1:1.
For `N#Cc1cncc(Br)n1`, the “photocatalytic hydrogen evolution rate” value was 0.0873 µmol/h. Turning to `O=C(O)c1cc(Br)c(C(=O)O)cc1Br`, the “photocatalytic hydrogen evolution rate” value was found to be 0 µmol/h. Next, `Nc1ccc(-c2cc(-c3ccc(N)cc3)cc(-c3ccc(N)cc3)c2)cc1`: 0 µmol/h. With `c1cnc2c(c1)ccc1cccnc12`, the “photocatalytic hydrogen evolution rate” value is 0.478 µmol/h. In the case of `Nc1c(Br)cc2[nH]cnc2c1Br`, the “photocatalytic hydrogen evolution rate” value came to 0 µmol/h. Consider `O=Cc1ccc(-c2ccncc2)cc1`, for which the “photocatalytic hydrogen evolution rate” value amounted to 3.29 µmol/h. Regarding `CC(=O)c1c(O)cccc1O`, the “photocatalytic hydrogen evolution rate” value was determined as 0 µmol/h. For the compound `c1cc(-c2cn[nH]c2)ccc1-c1cn[nH]c1`, the “photocatalytic hydrogen evolution rate” value turned out to be 0 µmol/h. As to `N#Cc1ccc(N)cc1`, the “photocatalytic hydrogen evolution rate” value stood at 0 µmol/h. On to `Brc1ccc2ccc3c(Br)ccc4ccc1c2c43`, for which the “photocatalytic hydrogen evolution rate” value worked out at 0.16 µmol/h. Turning to `N#Cc1cc(F)cc(F)c1`, the “photocatalytic hydrogen evolution rate” value turned out to be 0 µmol/h. Regarding `CCOC(=O)c1cncc(C(=O)OCC)c1`, the “photocatalytic hydrogen evolution rate” value worked out at 0.00607 µmol/h. The figure for `c1ccc2c(c1)Cc1cc3c(cc1-2)Cc1ccccc1-3` is 0.136 µmol/h; for `O=C(C(=O)c1ccc(C(=O)C(=O)c2ccccc2)cc1)c1ccccc1` it is 0.00597 µmol/h; for `COc1ccc(B(O)O)cc1` it is 0 µmol/h. For the compound `CC(=O)c1ccc(C#N)cc1`, the “photocatalytic hydrogen evolution rate” value was 5.7 µmol/h. As for `O=C1OC(=O)c2ccc3c4c(ccc1c24)C(=O)OC3=O`, the “photocatalytic hydrogen evolution rate” value was found to be 0.0941 µmol/h. Next, `N#Cc1ccc(Br)cc1`: 0 µmol/h. In the case of `Cn1c2ccccc2c2cc(C=O)ccc21`, the “photocatalytic hydrogen evolution rate” value turned out to be 2.49 µmol/h. For the compound `N#CCc1ccccc1-c1ccccc1CC#N`, the “photocatalytic hydrogen evolution rate” value was 0 µmol/h. The figure for `O=[N+]([O-])c1ccc(C(=C(c2ccc([N+](=O)[O-])cc2)c2ccc([N+](=O)[O-])cc2)c2ccc([N+](=O)[O-])cc2)cc1` is 0 µmol/h.

Consider `O=C1c2ccccc2C(=O)c2ccccc21`, for which the “photocatalytic hydrogen evolution rate” value was determined as 0 µmol/h.

Regarding `O=C1CCc2ccccc21`, the “photocatalytic hydrogen evolution rate” value stood at 0.101 µmol/h.

Take `C#Cc1ccc(N)cc1`: the “photocatalytic hydrogen evolution rate” value is 0 µmol/h. The figure for `N#Cc1cc(N)cc(F)c1` is 0 µmol/h; for `N#Cc1ccc(-c2ccc(C#N)cn2)nc1` it is 0 µmol/h; for `O=C1C(=O)c2cccnc2-c2ncccc21` it is 0 µmol/h.

Take `O=C(O)Cc1ccc(Br)cc1Br`: the “photocatalytic hydrogen evolution rate” value was determined as 0 µmol/h. `O=C1OC2(c3ccc(O)cc3Oc3cc(O)ccc32)c2ccccc21`: the “photocatalytic hydrogen evolution rate” value came out at 20.2 µmol/h. Regarding `O=C(n1ccnc1)n1ccnc1`, the “photocatalytic hydrogen evolution rate” value was determined as 0 µmol/h.

On to `O=Cc1ccc(Cl)c(O)c1`, for which the “photocatalytic hydrogen evolution rate” value came to 0 µmol/h.

In the case of `O=Cc1cc(Br)cc(Br)c1`, the “photocatalytic hydrogen evolution rate” value came to 0.234 µmol/h. `c1ccc2nc3ccccc3nc2c1`: the “photocatalytic hydrogen evolution rate” value came out at 0 µmol/h. On to `Cc1cc(Br)c(C)cc1Br`, for which the “photocatalytic hydrogen evolution rate” value was found to be 0 µmol/h.

As for `N#CCc1nc2ccccc2s1`, the “photocatalytic hydrogen evolution rate” value was 0 µmol/h. The figure for `N#Cc1c(F)c(F)c(F)c(F)c1F` is 0.0353 µmol/h; for `Brc1ccc(C#Cc2ccc(Br)cc2)cc1` it is 0 µmol/h; for `Brc1ccc(-c2ccc(Br)cc2)cc1` it is 0 µmol/h. `Brc1ccc(-c2ccc(-c3ccc(Br)s3)c3nsnc23)s1`: the “photocatalytic hydrogen evolution rate” value was determined as 0.174 µmol/h. The figure for `O=c1[nH]cc[nH]1` is 0 µmol/h; for `CC(C)c1cc(C(C)C)c(-c2ccccc2P(C(C)(C)C)C(C)(C)C)c(C(C)C)c1` it is 0 µmol/h; for `O=Cc1cccc(-c2c(O)ccc3ccccc23)c1` it is 0.0122 µmol/h. `ClCc1c2ccccc2c(CCl)c2ccccc12`: the “photocatalytic hydrogen evolution rate” value was found to be 0 µmol/h. In the case of `OC(c1ccccc1)c1ccccc1`, the “photocatalytic hydrogen evolution rate” value was 0 µmol/h. With `COc1ccnc(-c2cc(OC)ccn2)c1`, the “photocatalytic hydrogen evolution rate” value was found to be 0.169 µmol/h. With `c1ccc2c(c1)[nH]c1ccccc12`, the “photocatalytic hydrogen evolution rate” value came out at 0 µmol/h. For the compound `Nc1nnc(Br)cc1Br`, the “photocatalytic hydrogen evolution rate” value came to 0.0148 µmol/h. Turning to `O=Cc1ccc2ncccc2c1`, the “photocatalytic hydrogen evolution rate” value amounted to 3.11 µmol/h. The figure for `Brc1ccc2ccccc2c1` is 0.0179 µmol/h. As for `Fc1cc(Br)ccc1Br`, the “photocatalytic hydrogen evolution rate” value worked out at 0 µmol/h. Turning to `Nc1ccc(N)c(S(=O)(=O)O)c1`, the “photocatalytic hydrogen evolution rate” value worked out at 0 µmol/h. Consider `O=C(c1ccccc1)c1ccncc1`, for which the “photocatalytic hydrogen evolution rate” value was found to be 2.41 µmol/h. For the compound `Brc1ncc(Br)n2ccnc12`, the “photocatalytic hydrogen evolution rate” value was determined as 0.00675 µmol/h.

With `COc1ccc(B(O)O)cc1C=O`, the “photocatalytic hydrogen evolution rate” value worked out at 2.76 µmol/h.

As for `CC(C)(C)c1ccnc(-c2cc(C(C)(C)C)ccn2)c1`, the “photocatalytic hydrogen evolution rate” value turned out to be 0.236 µmol/h.

For the compound `COC(=O)c1ccc(C(=O)OC)c(N)c1`, the “photocatalytic hydrogen evolution rate” value is 0.0112 µmol/h. Turning to `Brc1ccc2c3ccc(Br)cc3c3ccccc3c2c1`, the “photocatalytic hydrogen evolution rate” value came to 0 µmol/h. Turning to `Fc1ccc(-c2nc(-c3ccccc3)nc(-c3ccccc3)n2)cc1`, the “photocatalytic hydrogen evolution rate” value stood at 0 µmol/h. With `N#Cc1ccc(C=O)cc1`, the “photocatalytic hydrogen evolution rate” value was 0.136 µmol/h. Next, `O=Cc1ccc2ccc3cccc4ccc1c2c34`: 10.3 µmol/h; `Oc1ccc2ccccc2c1-c1c(O)ccc2ccccc12`: 0 µmol/h; `CCCCCCC1(CCCCCC)c2cc(Br)ccc2-c2ccc(Br)cc21`: 0 µmol/h. As for `N#Cc1ccc(-c2ccc(C#N)nc2)cn1`, the “photocatalytic hydrogen evolution rate” value is 0.0601 µmol/h. Next, `O=Cc1ccc(-c2ccc(F)cc2)cc1`: 5.25 µmol/h; `Cc1c(CBr)c(C)c(CBr)c(C)c1CBr`: 0 µmol/h. For the compound `c1ccc(-c2ccc(-c3ccc(-c4ccc(-c5ccccc5)cc4)cc3)cc2)cc1`, the “photocatalytic hydrogen evolution rate” value stood at 0 µmol/h.

In the case of `Brc1ccc(-c2nc(-c3ccc(Br)cc3)nc(-c3ccc(Br)cc3)n2)cc1`, the “photocatalytic hydrogen evolution rate” value was determined as 0.0311 µmol/h. Consider `CC(C)(C)c1cc2ccc3c(Br)cc(Br)c4ccc(c1)c2c34`, for which the “photocatalytic hydrogen evolution rate” value was 0.121 µmol/h.

Take `O=Cc1ccc(N2CCCC2)cc1`: the “photocatalytic hydrogen evolution rate” value is 0.173 µmol/h. Turning to `O=c1oc(=O)c2cc3c(=O)oc(=O)c3cc12`, the “photocatalytic hydrogen evolution rate” value was determined as 0 µmol/h. The figure for `Cc1ccc(-c2ccc(C=O)cc2)cc1` is 3.39 µmol/h; for `O=C1c2ccccc2C(=O)c2c(Cl)cccc21` it is 0 µmol/h; for `O=Cc1ccc(C=O)cc1` it is 0.0145 µmol/h. The figure for `Fc1c(F)c(Br)c(F)c(F)c1Br` is 0 µmol/h. On to `N#CC(C#N)=c1cc(F)c(=C(C#N)C#N)cc1F`, for which the “photocatalytic hydrogen evolution rate” value stood at 0 µmol/h. With `N#Cc1ccc(Br)cn1`, the “photocatalytic hydrogen evolution rate” value was 0 µmol/h. Next, `O=c1cccc[nH]1`: 0 µmol/h; `Cc1cc(-c2cc(C)c(N)c(C)c2)cc(C)c1N`: 0 µmol/h.

With `O=C1c2cccc3cccc(c23)C(=O)N1O`, the “photocatalytic hydrogen evolution rate” value amounted to 0 µmol/h.
